Experimental data taken from US20230078811A1, “USE OF DISTILLABLE VOLATILE SALT FOR THE PRETREATMENT OF BIOMASS” (The Regents of the University of California, priority 2020, published 2023).

Assay: Distillation efficiency: pretreating solvent left in the solids after pretreatment and distillation
Assay type: physicochemical
Conditions: pretreat 100° C. 1 hour; distill 100° C. 1 hour, full vacuum; 40% solid loading; FIG. 4
Experimental: Distillation efficiency is measured using the following procedure: pretreat at 100° C. for 1 hour; distill at 100° C. for 1 hours in full vacuum, 40% solid loading (SL) with ethanolamine, enzyme saccharification (5%, 10%, 20% SL), and 10 mg/g biomass of CTEC/HTEC 9/1 cellulase. Distillation efficiency can be measured by determining the concentration of pretreating solvent in the solids after pretreatment.

removal of the solvent by distillation: about 98.7%
SMILES: NCCO [ethanolamine]
